Assay results from publication PMC7761779 (Polymers, 2020).
Read-outs that look alike come from different tables or passages of the source.

Assays:
[1] = set-up: method as in PMID 3958901; details: PEG 400/water mixtures; cadaver skin; infinite dose; cited from earlier work
[2] = set-up: method as in PMID 30529662; details: label = neat solvent of the NIA solution; porcine skin; cited from earlier work
[3] = set-up: method as in PMID 30529662; details: label = solvent; cited from earlier work
[4] = Dynamic Vapor Sorption (DVS) study of NIA solutions; type: physicochemical; details: label = vehicle of a 5% (w/v) NIA solution; 5 μL; 32 ± 1 °C, 50 ± 2% RH; n = 3
Description: Nitrogen was used as the carrier gas (200 mL/min). To monitor mass differences, 15 mm quartz glass pans connected to a microbalance accurate to 0.00001 mg were employed. Then, 5 μL solutions of 5% NIA (w/v) were added to the pans, and data were recorded using a Universal Analysis 2000 (TA Instrument, New Castle, DE, USA). Temperature and relative humidity (RH) were maintained over the course of the studies at 32 ± 1 °C and 50 ± 2% RH, respectively.

[5] = set-up: method as in PMID 30529662; details: label = neat solvent of the NIA solution; finite dose; porcine skin; cited from earlier work
[6] = set-up: method as in Suwanpidokkul et al.; details: porcine skin, infinite dose, ref Suwanpidokkul et al., cited from earlier work

SMILES | Flux trend with increasing PEG 400 concentration in the formulation [1] | Skin retention of NIA [2] [%] | Percentage of applied weight recovered at 24 h (DVS) [4] [%] | Cumulative permeation of NIA at 24 h [5] [μg/cm^2] | other results
O=C(O)CCc1nc(-c2ccccc2)c(-c2ccccc2)o1 [oxaprozin] | drop linearly |  |  |  | 
CCOCCOCCO [TC, Transcutol® P] |  | 16.4 ± 5.8 | 17.6 ± 0.5 | 95.1 | Solubility of NIA [3]: 8.0 ± 0.6%
Cc1cn([C@H]2C[C@H](N=[N+]=[N-])[C@@H](CO)O2)c(=O)[nH]c1=O [zidovudine] |  |  |  |  | Flux ([6]; PEG 400/water vehicle): 15.52 ± 0.60 μg/cm^2/h; Flux ([6]; ethanol/water vehicle): 9.96 ± 0.63 μg/cm^2/h; Flux ([6]; isopropanol/water vehicle): 10.35 ± 0.67 μg/cm^2/h
N=C(N)N/N=C/c1c(Cl)cccc1Cl [guanabenz] | drop linearly |  |  |  | 
CO[C@H]1CO[C@H]2[C@@H]1OC[C@H]2OC [DMI, dimethyl isosorbide] |  | 16.7 ± 6.3 | 76.3 ± 0.1 | 103.6 | 
CC(O)CO (centres unmarked) [PG, propylene glycol] |  |  | 44.6 ± 0.02 | 46.0 | 
